Measured values reported in US4578468A, “Antibiotic LL-D42067β” (American Cyanamid Company, priority 1984, dated 1986).
Converted amounts (≈) assume the structure as drawn.

Tests used:
Escherichia coli = experiment: in vitro antimicrobial spectrum, agar plate dilution (MIC); type: cell-based; conditions: 35° C., Mueller-Hinton agar
Protocol: (§1) The in vitro antimicrobial spectrum of LL-D42067β was determined by the agar plate dilution method with Mueller-Hinton agar and an inoculum of each test organism of approximately 10^4 colony forming units delivered by the Steers replicating device. The minimal inhibitory concentration (MIC) in mcg/ml was defined as the lowest concentration of LL-D42067β that inhibited visible growth after 18 hours incubation at 35° C.

Saccharomyces cerevisiae = experiment: as above; type: cell-based; conditions: strain Y 15, 18 hours, 35° C., Mueller-Hinton agar
Protocol: as §1

[1] = test system: Acinetobacter calcoaceticus; experiment: as above; type: cell-based; conditions: strain STFD 79-17, 18 hours, 35° C., Mueller-Hinton agar
Protocol: as §1

Staphylococcus aureus = experiment: as above; type: cell-based; conditions: Mueller-Hinton agar
Protocol: as §1

Candida albicans = experiment: as above; type: cell-based; conditions: strain CA 300, 18 hours, 35° C., Mueller-Hinton agar
Protocol: as §1

[2] = test system: Staphylococcus epidermidis; experiment: as above; type: cell-based; conditions: ATCC12228, strain ATCC 12228, 18 hours, 35° C., Mueller-Hinton agar
Protocol: as §1

Streptococcus mutans = experiment: as above; type: cell-based; conditions: 35° C., Mueller-Hinton agar
Protocol: as §1

Mycobacterium smegmatis = experiment: as above; type: cell-based; conditions: Mycolicibacterium smegmatis, ATCC607; strain ATCC 607; 18 hours, 35° C., Mueller-Hinton agar
Protocol: as §1

[3] = poultry; subject of a copending application; cited from earlier work
gram-positive bacteria = experiment: in vitro antimicrobial spectrum, summary; type: cell-based; conditions: summary of Table VI
Protocol: as §1

yeasts = experiment: in vitro antimicrobial spectrum, summary; type: cell-based; conditions: summary of Table VI
Protocol: as §1

With `COc1c2c(c(O)c3c(=O)c4c(oc13)[C@@H](O)CC[C@@H]4O)-c1c3c(c4cc(C)[nH]c(=O)c4c1O)OCO[C@H]3C2` (relative stereo) [LL-D42067β] the MIC (Escherichia coli; ATCC25922, strain ATCC 25922, 18 hours) was 512 µg/mL (≈ 982 µM), the MIC (Escherichia coli; strain No. 311, 18 hours) was 512 µg/mL (≈ 982 µM) and the MIC (Saccharomyces cerevisiae) was 512 µg/mL (≈ 982 µM). For the same compound, the MIC [1] was 512 µg/mL (≈ 982 µM), the MIC (Staphylococcus aureus; 18 h, strain LL No. 45, 35° C.) was 0.12 µg/mL (≈ 0.23 µM) and the MIC (Staphylococcus aureus; ATCC25923, 18 h, strain ATCC 25923, 35° C.) was 0.25 µg/mL (≈ 0.479 µM). It also gave an MIC (Candida albicans) of 512 µg/mL (≈ 982 µM), an MIC [2] of 0.25 µg/mL (≈ 0.479 µM) and an MIC (Streptococcus mutans; ATCC27352, strain ATCC 27352-1, 18 hours) of 0.25 µg/mL (≈ 0.479 µM). The MIC (Streptococcus mutans; strain BHI (b), 18 hours) was 0.25 µg/mL (≈ 0.479 µM), the MIC (Mycobacterium smegmatis) was 512 µg/mL (≈ 982 µM) and the “anticoccidial effect (in words)” value [3] was “effective”. For the same compound, the “antibacterial activity (in words)” value (gram-positive bacteria) was “active” and the “activity against yeasts (in words)” value (yeasts) was “moderately active”.
